Source: US7473688B2, “Indolobenzazepine HCV NS5B inhibitors” (Bristol-Myers Squibb Company, priority 2005, dated 2009)
Like-named read-outs stand apart in the source and are kept apart here.

How the values were obtained:
HCV replicon = HCV replicon FRET assay; assay type: cell-based; conditions: Hepatitis C virus, FRET assay, read-out: EC50*
Source text: FRET Assay Preparation. To perform the HCV FRET screening assay, 96-well cell culture plates were used. The FRET peptide (Anaspec, Inc.) (Taliani et al., Anal. Biochem. 1996, 240, 60-67) contains a fluorescence donor, EDANS, near one end of the peptide and an acceptor, DABCYL, near the other end. The fluorescence of the peptide is quenched by […] resonance energy transfer (RET) between the donor and the acceptor, but as the NS3 protease cleaves the peptide the products are released from RET quenching and the fluorescence of the donor becomes apparent. The assay reagent was made as follows: 5× cell Luciferase cell culture lysis reagent from Promega (#E153A) diluted to 1× with dH2O, NaCl added to 150 mM final, the FRET peptide diluted to 20 uM final from a 2 mM stock.
To prepare plates, HCV replicon cells, with or without a Renilla luciferase reporter gene, were trypsinized and placed into each well of a 96-well plate with titrated test compounds added in columns 3 through 12; columns 1 and 2 contained a control compound (HCV protease inhibitor), and the bottom row contained cells without compound. The plates were then placed in a CO2 incubator at 37° C.
Assays. Subsequent to addition of the test compounds described above (FRET Assay Preparation), at various times the plate was removed and Alamar blue solution (Trek Diagnostics, #00-100) was added per well as a measure of cellular toxicity. After reading in a Cytoflour 4000 instrument (PE Biosystems), plates were rinsed with PBS and then used for FRET assay by the addition of 30 ul of the FRET peptide assay reagent described above (FRET Assay Preparation) per well. The plate was then placed into the Cytoflour 4000 instrument which had been set to 340 excite/490 emission, automatic mode for 20 cycles and the plate read in a kinetic mode. Typically, the signal to noise using an endpoint analysis after the reads was at least three-fold. Alternatively, after Alamar blue reading, plates were rinsed with PBS, 50 ul of DMEM (high glucose) without phenol red was added and plates were then used for luciferase assay using the Promega Dual-Glo Luciferase Assay System.
Compound analysis was determined by quantification of the relative HCV replicon inhibition and the relative cytotoxicity values. To calculate cytoxicity values, the average Alamar Blue fluorescence signals from the control wells were set as 100% non-toxic. The individual signals in each of the compound test wells were then divided by the average control signal and multiplied by 100% to determine […]. To calculate the HCV replicon inhibition values, an average background value was obtained from the two wells containing the highest amount of HCV protease inhibitor at the end of the assay period. These numbers were similar to those obtained from naïve Huh-7 cells.
The background numbers were then subtracted from the average signal obtained from the control wells and this number was used as 100% activity. The individual signals in each of the compound test wells were then divided by the averaged control values after background subtraction and multiplied by 100% to determine percent activity. EC50 values for a protease inhibitor titration were calculated as the concentration which caused a 50% reduction in FRET or luciferase activity. The two numbers generated for the compound plate, percent cytoxicity and percent activity were used to determine compounds of interest for further analysis.

HCV NS5B = biological target: T1, HCV NS5B (Hepatitis C virus genotype 1b, UniProt Q9WMX2); test: HCV NS5B RdRp enzyme assay (preincubation protocol); assay type: biochemical
T1 construct: The protein was expressed with an 18 amino acid C-terminal truncation to enhance the solubility; made in house; host or cells: E. coli BL21 (DE3), pET21a
Outline: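 Preincubation format: enzyme (14 nM, genotype 1b, 18-residue C-terminal truncation) meets diluted compound first; reaction started with bead-bound biotinylated dT12 primer, polyA template 0.2 nM and 0.29 μM 3H-UTP. Run 4 h, 30 °C in Hepes pH 7.5; scintillation proximity signal; IC50 fitted from seven inhibitor levels.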

T1 sequence (Q9WMX2 2420-2992): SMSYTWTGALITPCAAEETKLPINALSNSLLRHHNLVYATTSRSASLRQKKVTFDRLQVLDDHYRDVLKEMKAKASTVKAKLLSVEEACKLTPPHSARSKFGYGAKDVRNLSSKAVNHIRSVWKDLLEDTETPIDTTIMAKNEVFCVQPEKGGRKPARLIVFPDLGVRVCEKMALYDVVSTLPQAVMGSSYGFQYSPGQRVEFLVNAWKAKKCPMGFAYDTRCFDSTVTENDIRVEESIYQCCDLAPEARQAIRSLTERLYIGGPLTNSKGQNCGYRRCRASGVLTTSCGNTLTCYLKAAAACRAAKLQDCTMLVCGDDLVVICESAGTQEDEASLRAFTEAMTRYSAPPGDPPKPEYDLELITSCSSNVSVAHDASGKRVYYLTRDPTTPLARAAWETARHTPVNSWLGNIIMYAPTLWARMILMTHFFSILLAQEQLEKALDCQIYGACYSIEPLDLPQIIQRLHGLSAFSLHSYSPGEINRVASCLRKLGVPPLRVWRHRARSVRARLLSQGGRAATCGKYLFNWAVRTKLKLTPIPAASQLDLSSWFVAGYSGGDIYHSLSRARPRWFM

Row | Compound | EC50 (HCV replicon; Table 1) [µM] | IC50 (HCV NS5B; Table 1, read-out: IC50*) [µM] | other results
1 | COc1ccc2c(c1)C=C(C(=O)N(C)C[C@@H]1CCCO1)Cn1c-2c(C2CCCCC2)c2ccc(C(=O)NS(=O)(=O)N(C)C)cc21 | – | – | EC50 (HCV replicon; Table 1a): 0.03 to 1 µM; IC50 (HCV NS5B; Table 1a, read-out: IC50*): 0.01 to 1 µM
2 | COC(=O)C1=Cc2ccccc2-c2c(C3CCCCC3)c3ccc(C(=O)NS(=O)(=O)N4CCOCC4)cc3n2C1 | 0.07 to 1 | 0.01 to 1 | –
3 | CC(=O)NN(C)C(=O)C1=Cc2ccccc2-c2c(C3CCCCC3)c3ccc(C(=O)O)cc3n2C1 [drawing 154] | 1 to 10 | 0.01 to 1 | –
4 | COc1ccc2c(c1)CC(NC(=O)N1CCN(C(N)=O)CC1)Cn1c-2c(C2CCCCC2)c2ccc(C(=O)NS(=O)(=O)N(C)C)cc21 (centres unmarked) | – | – | EC50 (HCV replicon; Table 1a): 0.03 to 1 µM; IC50 (HCV NS5B; Table 1a, read-out: IC50*): 0.01 to 1 µM
5 | COc1ccc2c(c1)C=C(C(=O)N1CC(C(=O)N3CCOCC3)C1)Cn1c-2c(C2CCCCC2)c2ccc(C(=O)NS(=O)(=O)N(C)C)cc21 | – | – | EC50 (HCV replicon; Table 1b): 0.03 to 1 µM; IC50 (HCV NS5B; Table 1b, read-out: IC50*): 0.02 to 1 µM
6 | COC(=O)c1ccc2c(C3CCCCC3)c3n(c2c1)CC(C(=O)N1CCC(N2CCCCC2=O)CC1)Cc1ccccc1-3 (centres unmarked) | 0.07 to 1 | > 1 | –
7 | Cn1ncc(CNC(=O)c2ccc3c(C4CCCCC4)c4n(c3c2)CC(C(=O)N2CCOCC2)=Cc2ccccc2-4)n1 | 1 to 10 | 0.01 to 1 | –
8 | COc1ccc2c(c1)C=C(C(=O)N1CCOC(CO)C1)Cn1c-2c(C2CCCCC2)c2ccc(C(=O)NS(=O)(=O)N(C)C)cc21 (centres unmarked) | – | – | EC50 (HCV replicon; Table 1a): 0.03 to 1 µM; IC50 (HCV NS5B; Table 1a, read-out: IC50*): 0.01 to 1 µM
9 | CN(C)S(=O)(=O)NC(=O)c1ccc2c(C3CCCCC3)c3n(c2c1)CC(C(=O)N1CCC(n2ccnn2)CC1)=Cc1ccccc1-3 | 0.07 to 1 | 0.01 to 1 | –
10 | O=C(O)c1ccc2c(C3CCCCC3)c3n(c2c1)CC(NC(=O)N1CCOCC1)Cc1ccccc1-3 (centres unmarked) | 0.07 to 1 | 0.01 to 1 | –
11 | COc1ccc2c(c1)CC(NC(=O)N(C)CC(=O)N1CCN(C)CC1)Cn1c-2c(C2CCCCC2)c2ccc(C(=O)NS(=O)(=O)N(C)C)cc21 (centres unmarked) | – | – | EC50 (HCV replicon; Table 1b): 0.03 to 1 µM; IC50 (HCV NS5B; Table 1b, read-out: IC50*): 0.02 to 1 µM
12 | C[C@@H]1CN(C(=O)c2ccccc2)CCN1C(=O)C1=Cc2ccccc2-c2c(C3CCCCC3)c3ccc(C(=O)O)cc3n2C1 | 0.07 to 1 | 0.01 to 1 | –
13 | COC(=O)c1ccc2c(C3CCCCC3)c3n(c2c1)CC(C(=O)N1CCCC(=O)N1)=Cc1ccccc1-3 | 1 to 10 | > 1 | –
14 | O=C(NCc1cnn[nH]1)c1ccc2c(C3CCCCC3)c3n(c2c1)CC(C(=O)N1CCC(N2CCOCC2)CC1)=Cc1ccccc1-3 [drawing 203] | 1 to 10 | 0.01 to 1 | –
15 | COc1ccc2c(c1)CC(NC(=O)N(C)CC(=O)N1CCOCC1)Cn1c-2c(C2CCCCC2)c2ccc(C(=O)NS(=O)(=O)N(C)C)cc21 (centres unmarked) | – | – | EC50 (HCV replicon; Table 1a): 0.03 to 1 µM; IC50 (HCV NS5B; Table 1a, read-out: IC50*): 0.01 to 1 µM
16 | COC(=O)c1ccc2c(C3CCCCC3)c3n(c2c1)CC(C(=O)N(C)CC1CCCN(C)C1)=Cc1ccccc1-3 (centres unmarked) | 1 to 10 | 0.01 to 1 | –
17 | COc1ccc2c(c1)CC(NC(=O)N1C[C@@H]3C[C@H]1CO3)Cn1c-2c(C2CCCCC2)c2ccc(C(=O)NS(=O)(=O)N(C)C)cc21 (some centres unmarked) | – | – | EC50 (HCV replicon; Table 1a): 0.03 to 1 µM; IC50 (HCV NS5B; Table 1a, read-out: IC50*): 0.01 to 1 µM
18 | COC(=O)c1ccc2c(C3CCCCC3)c3n(c2c1)CC(C(=O)N1CCC(N2CCOCC2)CC1)=Cc1ccccc1-3 | 1 to 10 | > 1 | –
19 | O=C(NS(=O)(=O)N1CCOCC1)c1ccc2c(C3CCCCC3)c3n(c2c1)CC(C(=O)N1CCC(N2CCOCC2)CC1)=Cc1ccccc1-3 | 0.07 to 1 | 0.01 to 1 | –
20 | O=C(NS(=O)(=O)N1CCN(CC(F)(F)F)CC1)c1ccc2c(C3CCCCC3)c3n(c2c1)CC(C(=O)N1CCOCC1)=Cc1ccccc1-3 [drawing 395] | – | – | EC50 (HCV replicon; Table 1b): 0.03 to 1 µM; IC50 (HCV NS5B; Table 1b, read-out: IC50*): 0.02 to 1 µM
21 | CN(C)S(=O)(=O)NC(=O)c1ccc2c(C3CCCCC3)c3n(c2c1)CC(C(=O)N1CCC(N2CCC(F)CC2)CC1)=Cc1ccccc1-3 | 0.07 to 1 | 0.01 to 1 | –
22 | COc1cccc2c1C=C(C(=O)N1CCOC(CO)C1)Cn1c-2c(C2CCCCC2)c2ccc(C(=O)O)cc21 (centres unmarked) | – | – | EC50 (HCV replicon; Table 1b): 0.03 to 1 µM; IC50 (HCV NS5B; Table 1b, read-out: IC50*): 0.02 to 1 µM
